Assays:
[1] = system: Sarcoma 180 solid tumour; test: Therapeutic effect on Sarcoma 180 solid tumour; format: in vivo, mice (male; ddy-strain); details: 5.6 mg/kg, abdominally, single, day 7
Description: Mice (male; ddy-strain; weight about 20 g; each group consisting of 6 mice) were used as test animals. Sarcoma 180 tumour cells (each 5×10^6cells) were subcutaneously implanted into each mouse at the armpit. 24 hours after this, a phosphate buffered physiological solution of sodium chloride (each 0.2 ml) was intraperitoneally administered to each mouse, a given amount of one of the substances DC-45-A, DC-45-B1 and DC-45-B2 being contained in each solution so that a different substance is administered to each group of mice. The said phosphate buffer contained NaCl (0.8 g/dl), KCl (0.02 g/dl), […] (1.15 g/dl) and KH2 PO4 (0.02 g/dl). For comparison purpose, a similar phosphate buffered solution containing mitomycin C (0.2 ml) was abdominally administered to the mice of another group 24 hours after the implantation of the tumour cells. Table 3 indicates the volume of the tumour (mean value in mm^3) and T/C (mean value; the tumour volume of the animal treated with the test compound/the tumour volume of the control animal treated with 0.2 ml of the phosphate buffered solution of sodium chloride, both being determined 7 days after the implantation.

[2] = system: Lymphocytic leukaemia P-388 tumour; test: Anti-tumour activity on Lymphocytic leukaemia P-388 tumour; format: in vivo, mice (male; CDF1 strain); details: 5.6 mg/kg, abdominally
Description: Mice (male; CDF1 strain; weight about 22 g; each group consisting of 5 mice) were used as the test animals. Lymphocytic leukaemia P-388 tumour cells (each 1×10^6 cells) were intraperitoneally implanted into each mouse. 24 hours after this, a phosphate buffered physiological solution of sodium chloride (each 0.2 ml) was intraperitioneally injected once into each mouse, a given amount of one substance being contained in each solution so that a different substance is administered to each group of mice. For comparison, a similar phosphate buffered solution of sodium chloride containing mitomycin C was admnistered abdominally to each mouse of a further control group. Table 4 indicates the average survival time in days and T/C (mean value of the survival days of the animals treated with the test compound/mean value of the survival days of the control animals treated with 0.2 ml of the phosphate buffered solution of sodium chloride).

`CO[C@@]12[C@H](COC(N)=O)C3=C(C(=O)C(C)=C(N)C3=O)N1C[C@@H]1N[C@@H]12` [Mitomycin C, mitomycin C] was tested, and the “T/C (tumour volume)” value [1] was 0.20, the “Volume of tumour (mean value)” value [1] was 282 mm^3 and the Survival days [2] was 18.0 ± 1.4 days. For the same compound, the “T/C (survival days)” value [2] was 1.88.
